As usually defined, the IC50 is the concentration that inhibits the measured activity by half.

This passage reports IC50 results from patent US11542233B2, “Compounds, compositions and methods of use” (Aquinnah Pharmaceuticals, Inc., priority 2016, dated 2023).

The structures appear in SMILES notation.

The assay has as its system TDP-43 aggregation in PC12 cells stably expressing GFP-tagged mutant TDP-43 (TDP-43^Q33IK::eGFP). The assay can be described thus: In vitro efficacy assay: inhibition of TDP-43 inclusions, concentration-response, fluorescence microscopy. It counts as cell-based. The settings on record: Rattus norvegicus, PC-12, PC12 cells, 1 hour pre-treatment, 15 μM sodium arsenite for 23 hours, 10-point dose response curve. As to the method: Exemplary compounds of the invention were evaluated for efficacy in inhibiting TDP-43 inclusions using a concentration-response assay. Briefly, PC12 cells stably expressing a GFP-tagged mutant form of TDP-43 (TDP-43^Q33IK::eGFP) were pre-treated for 1 hour with exemplary compounds and stressed with 15 μM sodium arsenite for 23 hours to induce TDP-43 aggregation. The inhibitory effect on TDP-43 aggregation was measured using fluorescence microscopy. The ratio of cells with TDP-43 aggregates was calculated based on the total number of cells with detectable GFP expression. In the table, “A” indicates an IC50 of less than 100 nM, “B” indicates an IC50 range from 100 nM to 500 nM; “C” indicates an IC50 range from 500 nM to 2 μM; and “D” indicates an IC50 greater than 2 μM.
Turning to `CCN(C(=O)c1cc2ccccc2[nH]1)[C@H]1CCC[C@@H](NCc2cccc(O)c2)C1` [Compound 427], the IC50 is below 100 nM.

For `CCN(C(=O)c1cc2ccccc2[nH]1)[C@H]1CCC[C@@H](NCc2ccc(O)cc2)C1` [Compound 428], the half-maximal inhibitory concentration (IC50) is below 100 nM.

With `CCN(C(=O)c1cc2ccccc2[nH]1)[C@H]1CCC[C@@H](NCc2ccc(OC(F)(F)F)cc2)C1` [Compound 429], the IC50 is below 100 nM.

Regarding `CCN(C(=O)c1cc2ccccc2[nH]1)[C@H]1CCC[C@@H](NCc2cccc(OC(F)(F)F)c2)C1` [Compound 430], the concentration for half-maximal inhibition (IC50) was below 100 nM.

Turning to `CCN(C(=O)c1cc2ccccc2[nH]1)[C@H]1CCC[C@@H](NCc2cccc(S(C)(=O)=O)c2)C1` [Compound 431], the half-inhibitory concentration (IC50) is below 100 nM.

As for `CCN(C(=O)c1cc2ccccc2[nH]1)[C@H]1CCC[C@@H](NCc2ccc(S(C)(=O)=O)cc2)C1` [Compound 432], the half-inhibitory concentration (IC50) was in the range of 100 to 500 nM.

With `CCN(C(=O)c1cc2ccccc2[nH]1)[C@H]1CCC[C@@H](NCc2cc3cc(F)ccc3o2)C1` [Compound 433], the half-maximal inhibitory concentration (IC50) is below 100 nM.

Regarding `CCN(C(=O)c1cc2ncccc2[nH]1)[C@H]1CCC[C@@H](NCc2ccnc(O)c2)C1` [Compound 434], the IC50 is above 2000 nM.

For the compound `CCN(C(=O)c1cc2ncccc2[nH]1)[C@H]1CCC[C@@H](NCc2cc(C3CC3)no2)C1` [Compound 435], the IC50 is below 100 nM.

As for `CCN(C(=O)c1cc2ncccc2[nH]1)[C@H]1CCC[C@@H](NCc2cc(C3CC3)on2)C1` [Compound 436], the IC50 is below 100 nM.

Turning to `CCN(C(=O)c1cc2ncccc2[nH]1)[C@H]1CCC[C@@H](NCc2cc(C)no2)C1` [Compound 437], the 50% inhibitory concentration (IC50) is below 100 nM.

As to `CCN(C(=O)c1cc2ncccc2[nH]1)[C@H]1CCC[C@@H](NCc2cnoc2)C1` [Compound 438], the concentration for half-maximal inhibition (IC50) was above 2000 nM.

As for `CCN(C(=O)c1cc2ncccc2[nH]1)[C@H]1CCC[C@@H](NCc2nnc(C)s2)C1` [Compound 439], the concentration for half-maximal inhibition (IC50) was above 2000 nM.

For `CCN(C(=O)c1cc2ncccc2[nH]1)[C@H]1CCC[C@@H](NCc2ccnc(OC)c2)C1` [Compound 440], the IC50 was below 100 nM.

Turning to `CCN(C(=O)c1cc2ncccc2[nH]1)[C@H]1CCC[C@@H](NCc2ccc3ncoc3c2)C1` [Compound 441], the IC50 was below 100 nM.

On to `CCN(C(=O)c1cc2ncccc2[nH]1)[C@H]1CCC[C@@H](NCc2ccc3nsnc3c2)C1` [Compound 442], for which the IC50 is below 100 nM.

Consider `CCN(C(=O)c1cc2ncccc2[nH]1)[C@H]1CCC[C@@H](NCc2ccc3ocnc3c2)C1` [Compound 443], for which the IC50 was below 100 nM.

`CCN(C(=O)c1cc2ncccc2[nH]1)[C@H]1CCC[C@@H](NCc2cc3ccccc3o2)C1` [Compound 444]: the IC50 is below 100 nM.

For the compound `CCN(C(=O)c1cc2ncccc2[nH]1)[C@H]1CCC[C@@H](NCc2cc(C)on2)C1` [Compound 445], the 50% inhibitory concentration (IC50) fell in the range of 100 to 500 nM.

As to `CCN(C(=O)c1cc2ncccc2[nH]1)[C@H]1CCC[C@@H](NCc2nccs2)C1` [Compound 446], the half-maximal inhibitory concentration (IC50) is 500 to 2000 nM.

With `CCN(C(=O)c1cc2ncccc2[nH]1)[C@H]1CCC[C@@H](NCc2c[nH]cn2)C1` [Compound 447], the IC50 lay in the range of 100 to 500 nM.

Consider `CCN(C(=O)c1cc2ncccc2[nH]1)[C@H]1CCC[C@@H](NCc2cnn(C)c2)C1` [Compound 448], for which the IC50 is below 100 nM.

For the compound `CCN(C(=O)c1cc2ccccc2[nH]1)[C@H]1CCC[C@@H](NCc2oc3ccccc3c2C)C1` [Compound 449], the IC50 was below 100 nM.

In the case of `CCN(C(=O)c1cc2ccccc2[nH]1)[C@H]1CCC[C@@H](NCc2cc3ccccc3s2)C1` [Compound 450], the half-maximal inhibitory concentration (IC50) was below 100 nM.

For the compound `CCN(C(=O)c1cc2ccccc2[nH]1)[C@H]1CCC[C@@H](NCc2nc3ccccc3s2)C1` [Compound 451], the IC50 lay within 100 to 500 nM.

Turning to `CCN(C(=O)c1cc2ccccc2[nH]1)[C@H]1CCC[C@@H](NCc2ccnc(O)c2)C1` [Compound 452], the IC50 was above 2000 nM.

For the compound `CCN(C(=O)c1cc2ccccc2[nH]1)[C@H]1CCC[C@@H](NCc2cnoc2)C1` [Compound 453], the half-inhibitory concentration (IC50) lay within 100 to 500 nM.

Consider `CCN(C(=O)c1cc2ccccc2[nH]1)[C@H]1CCC[C@@H](NCc2nnc(C)s2)C1` [Compound 454], for which the IC50 was below 100 nM.

Consider `CCN(C(=O)c1cc2ccccc2[nH]1)[C@H]1CCC[C@@H](NCc2cc(C3CC3)no2)C1` [Compound 455], for which the half-inhibitory concentration (IC50) is below 100 nM.

For the compound `CCN(C(=O)c1cc2ccccc2[nH]1)[C@H]1CCC[C@@H](NCc2conc2C2CC2)C1` [Compound 456], the IC50 was below 100 nM.

For `CCN(C(=O)c1cc2ccccc2[nH]1)[C@H]1CCC[C@@H](NCc2ccnc(OC)c2)C1` [Compound 457], the half-inhibitory concentration (IC50) was below 100 nM.

Consider `CCN(C(=O)c1cc2ccccc2[nH]1)[C@H]1CCC[C@@H](NCc2cc(C)no2)C1` [Compound 458], for which the IC50 is 100 to 500 nM.

As for `CCN(C(=O)c1cc2ccccc2[nH]1)[C@H]1CCC[C@@H](NCc2ccc3ocnc3c2)C1` [Compound 459], the half-inhibitory concentration (IC50) is below 100 nM.

Take `CCN(C(=O)c1cc2ccccc2[nH]1)[C@H]1CCC[C@@H](NCc2cc(C3CC3)on2)C1` [Compound 460]: the IC50 is below 100 nM.

Consider `CCN(C(=O)c1cc2ccccc2[nH]1)[C@H]1CCC[C@@H](NCc2cnn(C)c2)C1` [Compound 461], for which the IC50 was 500 to 2000 nM.

`CCN(C(=O)c1cc2ccccc2[nH]1)[C@H]1CCC[C@@H](NCc2cc(C)on2)C1` [Compound 462]: the half-inhibitory concentration (IC50) is below 100 nM.

Consider `C#CCOc1ccc(C(=O)c2ccc(CN[C@@H]3CCC[C@H](N(CC)C(=O)c4cc5ncccc5[nH]4)C3)cc2)cc1` [Compound 463, N-ethyl-N-((1S,3R)-3-((4-(4-(prop-2-yn-1-yloxy)benzoyl)benzyl)amino)cyclohexyl)-1H-pyrrolo[3,2-b]pyridine-2-carboxamide], for which the IC50 was below 100 nM.

On to `CCN(C(=O)c1cc2ccccc2[nH]1)[C@H]1CCC[C@@H](NCc2ccc3ncoc3c2)C1` [Compound 464, N-((1S,3R)-3-((benzo[d]oxazol-6-ylmethyl)amino)cyclohexyl)-N-ethyl-1H-indole-2-carboxamide], for which the IC50 is below 100 nM.

With `CCN(C(=O)c1cc2ccccc2[nH]1)[C@H]1CCC[C@@H](NCc2nccs2)C1` [Compound 465, N-ethyl-N-((1S,3R)-3-((thiazol-2-ylmethyl)amino)cyclohexyl)-1H-indole-2-carboxamide], the half-inhibitory concentration (IC50) fell in the range of 500 to 2000 nM.

Consider `CCN(C(=O)c1cc2ccccc2[nH]1)[C@H]1CCC[C@@H](NCc2c[nH]cn2)C1` [Compound 466], for which the half-inhibitory concentration (IC50) is above 2000 nM.

As for `CCN(C(=O)c1cc2ccccc2[nH]1)[C@H]1CCC[C@@H](NCc2nnc(C3CC3)s2)C1` [Compound 467, N-((1S,3R)-3-(((5-cyclopropyl-1,3,4-thiadiazol-2-yl)methyl)amino)cyclohexyl)-N-ethyl-1H-indole-2-carboxamide], the IC50 is below 100 nM.

As to `CCN(C(=O)c1cc2ncccc2[nH]1)[C@H]1CCC[C@@H](NCc2nnc(C)o2)C1` [Compound 468, N-ethyl-N-((1S,3R)-3-(((5-methyl-1,3,4-oxadiazol-2-yl)methyl)amino)cyclohexyl)-1H-pyrrolo[3,2-b]pyridine-2-carboxamide], the IC50 is 500 to 2000 nM.

As for `CCN(C(=O)c1cc2ccccc2[nH]1)[C@H]1CCC[C@@H](NCc2nnc(C)o2)C1` [Compound 469], the half-maximal inhibitory concentration (IC50) fell in the range of 100 to 500 nM.

For `CCN(C(=O)c1cc2ncccc2[nH]1)[C@H]1CCC[C@@H](NCc2cc(C(C)C)no2)C1` [Compound 470], the IC50 was below 100 nM.

Turning to `CCN(C(=O)c1cc2ccccc2[nH]1)[C@H]1CCC[C@@H](NCc2cc(C(C)C)no2)C1` [Compound 471], the IC50 was below 100 nM.

For `CCN(C(=O)c1nc2ccccc2[nH]1)[C@H]1CCC[C@@H](NCc2cccc(OC(F)(F)F)c2)C1` [Compound 472], the IC50 is below 100 nM.

`CCN(C(=O)c1nc2ccccc2[nH]1)[C@H]1CCC[C@@H](NCc2ccc(OC(F)(F)F)cc2)C1` [Compound 473]: the half-inhibitory concentration (IC50) was below 100 nM.

As to `CCN(C(=O)c1nc2ccccc2[nH]1)[C@H]1CCC[C@@H](NCc2ccc3nccn3c2)C1` [Compound 474], the concentration for half-maximal inhibition (IC50) lay within 100 to 500 nM.

On to `CCN(C(=O)c1nc2ccccc2[nH]1)[C@H]1CCC[C@@H](NCc2ccc(F)cc2)C1` [Compound 475], for which the IC50 was below 100 nM.

For the compound `CCN(C(=O)c1nc2ccccc2[nH]1)[C@H]1CCC[C@@H](NCc2oc3ccccc3c2C)C1` [Compound 476], the IC50 is below 100 nM.

As for `CCN(C(=O)c1nc2ccccc2[nH]1)[C@H]1CCC[C@@H](NCc2cccc(OC)c2)C1` [Compound 477], the IC50 is below 100 nM.

`CCN(C(=O)c1nc2ccccc2[nH]1)[C@H]1CCC[C@@H](NCc2cc3cc(F)ccc3o2)C1` [Compound 478]: the half-maximal inhibitory concentration (IC50) was below 100 nM.

For the compound `CCN(C(=O)c1nc2ccccc2[nH]1)[C@H]1CCC[C@@H](NCc2cc3ccccc3o2)C1` [Compound 479], the IC50 is below 100 nM.

`CCN(C(=O)c1nc2ccccc2[nH]1)[C@H]1CCC[C@@H](NCc2cccc(F)c2)C1` [Compound 480]: the IC50 is below 100 nM.

For `CCN(C(=O)c1nc2c(C#N)cccc2[nH]1)[C@H]1CCC[C@@H](NCc2ccccc2)C1` [Compound 481, N-((1S,3R)-3-(benzylamino)cyclohexyl)-4-cyano-N-ethyl-1H-benzo[d]imidazole-2-carboxamide], the IC50 was below 100 nM.

For the compound `CCN(C(=O)c1nc2c(F)cccc2[nH]1)[C@H]1CCC[C@@H](NCc2ccccc2)C1` [Compound 482], the IC50 was below 100 nM.

For `CCN(C(=O)c1nc2cc(F)ccc2[nH]1)[C@H]1CCC[C@@H](NCc2ccccc2)C1` [Compound 483], the IC50 is below 100 nM.
